The values below come from patent US8470844B2, “Imidazoacridinone derivative compounds and methods for their use” (Technion Research & Development Foundation Limited, priority 2008, dated 2013).

Data set [1] has as its system A549/K1.5 cells. Kind of data set: MTT cytotoxicity assay, ABCG2-overexpressing A549/K1.5 cells. The following applies: for IC50: ABCG2-overexpressing A549/K1.5 cells, 96 hours exposure, MTT; for RF (resistance fold): IC50 of A549/K1.5 cells divided by IC50 of parental A549 cells; for resistance of A549/K1.5 cells (in words) / hypersensitivity of A549/K1.5 cells: versus parental A549 cells. The class given is cell-based, Human. How it is done:
(§1) Tissue culture: Human non-small cell lung cancer A549 cells and T-cell leukemia CCRF-CEM cells were grown under monolayer conditions or up to a maximal density of 10^6 cells/ml (for CCRF-CEM cells) in RPMI-1640 medium (GIBCO) supplemented with 10% fetal calf serum, 2 mM glutamine, 100 μg/ml penicillin and 100 μg/ml streptomycin (Biological Industries, Beth-Haemek, Israel) in a humid atmosphere of 5% CO2. Drug resistant A549/K1.5 cells with ABCG2 overexpression were maintained under a continuous drug selection with 1.5 μM C-1305. Bram, E. E., et al., (2007) Biochem Pharmacol 74(1), 41-53.
(§2) Cytotoxicity and growth inhibition assays: The cytotoxic activity of the various IA antitumor agents was determined using the MTT assay. Poindessous, V., et al., (2003) Clin Cancer Res 9(7), 2817-2825.
(§3) Exponentially growing cells were seeded at 5×10^3 cells/well in 24-well plates (2 ml medium/well). Following an overnight incubation, cells were exposed to different drug concentrations for 96 hours. Cellular viability was determined by adding the tetrazolium salt MTT for 4 h at 37° C., followed by solubilization of the intracellular precipitated formazan in 1 ml DMSO and absorbance was determined by a microplate reader (ASYS Hitech GmbH, Austria). Drug concentrations required to inhibit cell growth by 50% (IC50) compared with untreated controls were determined from the curves of survival versus drug concentrations using the SlideWrite software (Advanced Graphics Software, Inc., Encinitas, Calif.). Resistance folds (RF) were calculated by dividing the IC50 value of the resistant cells by that of the parental cell line. Values presented are means of at least three independent experiments, each performed in duplicates.
Quantitative evaluation of ABCG2 interaction with various IA derivatives: The extent of ABCG2-mediated resistance was expressed using the Resistance Fold (RF) parameter representing the ratio between the IC50 values of the resistant cells and parental cells. Likewise, ABCG2-dependent differential accumulation of IAs in ABCG2-overexpressing A549/K1.5 cells was compared using the ratio of IA accumulation in the presence or absence of the potent ABCG2 inhibitor FTC. This was termed the FTC-dependent Accumulation Fold (AF) and was determined for each IA at a constant IA concentration of 10 μM.
(In general: Tetrazolium dyes change colour on reduction, which living cells bring about.)

In data set [2] the test system is A549 cells. Kind of data set: MTT cytotoxicity assay, parental A549 cells. The format is cell-based, Human. The following applies: 96 hours exposure, mean of at least three experiments. How it is done:
as §1, §2, §3

For data set [3], the target named is T1, ABCG2 (A549/K1.5 cells) (Homo sapiens, UniProt Q9UNQ0).
T1 construct: Drug resistant A549/K1.5 cells with ABCG2 overexpression were maintained under a continuous drug selection with 1.5 μM C-1305; endogenous in cells; host or cells: A549/K1.5 (C-1305-selected subline of human non-small cell lung cancer A549)
T1 sequence (Q9UNQ0 1-655): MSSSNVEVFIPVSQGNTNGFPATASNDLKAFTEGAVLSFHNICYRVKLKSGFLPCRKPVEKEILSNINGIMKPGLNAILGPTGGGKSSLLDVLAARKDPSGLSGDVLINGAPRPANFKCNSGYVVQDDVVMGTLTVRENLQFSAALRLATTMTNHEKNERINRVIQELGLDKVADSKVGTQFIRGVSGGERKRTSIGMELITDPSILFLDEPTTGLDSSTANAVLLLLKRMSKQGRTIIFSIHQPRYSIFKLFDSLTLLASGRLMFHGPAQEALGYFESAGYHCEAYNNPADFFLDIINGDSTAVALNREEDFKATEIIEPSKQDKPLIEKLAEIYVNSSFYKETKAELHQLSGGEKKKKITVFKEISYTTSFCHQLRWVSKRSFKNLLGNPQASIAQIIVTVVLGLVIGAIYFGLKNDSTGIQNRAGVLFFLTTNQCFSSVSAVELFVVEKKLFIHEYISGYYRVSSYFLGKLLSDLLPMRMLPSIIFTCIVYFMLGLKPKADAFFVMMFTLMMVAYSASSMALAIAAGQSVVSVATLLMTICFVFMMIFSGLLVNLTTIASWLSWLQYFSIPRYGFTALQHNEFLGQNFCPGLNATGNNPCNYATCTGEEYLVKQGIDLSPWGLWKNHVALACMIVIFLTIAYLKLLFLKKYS
Kind of data set: Fluorescence microscopy of nuclear accumulation of IAs in A549/K1.5 cells. The format is cell-based. The following applies: 10 μM IA, 1 hr, presence or absence of 5 μM FTC. As to the method: In immunofluorescence microscopy of plasma membrane targeting of ABCG2 and nuclear accumulation of IAs, cells (1×10^4/well) were seeded in 24-well plates (1 ml medium/well) and incubated for 2 days, following which some wells were supplemented with 10 μM IA-containing medium±5 μM FTC and incubated for 1 h at 37° C. Cells were then washed twice with ice-cold PBS containing 0.1% BSA and blocked for 10 min at 4° C. with PBS containing 5% BSA. Cells were then washed once with ice-cold PBS containing 0.1% BSA and incubated for 30 min at 4° C. with a Phycoerythrin-conjugated, affinity-purified 5D3 mouse anti-human ABCG2 monoclonal antibody (1:100; eBioscience). Unspecific fluorescence was determined using cells that were incubated only with a secondary Phycoerythrin (PE)-conjugated goat anti-mouse IgG (1:200; Jackson Immunoresearch Labs, West Grove, Pa.). Cells were then washed twice and subjected to fluorescence microscopy using a DMIRE2 fluorescence microscope equipped with a DC300FX camera (Leica Microsystems, Wetzlar, Germany).
In order to exclude the possibility that differential subcellular accumulation of IA derivatives is the basis of the observed difference in cytotoxicity and cellular fluorescence, A549/K1.5 cells were incubated with 10 μM of selected IA derivatives from both group A and B in the presence or absence of FTC and subjected to fluorescence microscopy.

For data set [4], the target named is T1, ABCG2 (A549/K1.5 cells). Kind of data set: Flow cytometric IA accumulation in A549/K1.5 cells with or without fumitremorgin C. The format is cell-based. As to the method:
In this assay, one ml aliquots of A549/K1.5 or CCRF-CEM cell suspensions (1×10^6 cells/ml) in growth medium containing 20 mM Hepes at pH 7.3 were distributed into 1.5 ml polypropylene Eppendorf test tubes. […] Rabindran, S. […] Alternatively, in time-course experiments, IA derivatives at a constant concentration of 10 μM were added to a CCRF-CEM cell suspension incubated at 37° C., and 1 ml aliquots were removed at variable time points up to 1 hour. Following incubation, test tubes were transferred to ice and centrifuged at 4° C. Cells were then washed twice and re-suspended in ice-cold PBS containing 1% fetal calf serum and kept in the dark at 4° C. until analysis. […] Quantitative evaluation of ABCG2 interaction with various IA derivatives: The extent of ABCG2-mediated resistance was expressed using the Resistance Fold (RF) parameter representing the ratio between the IC50 values of the resistant cells and parental cells.
In general terms: A flow cytometer gives signals particle by particle.

By IC50 is commonly meant the point on the concentration scale where inhibition reaches its midpoint. Regarding `CN(C)CCCNc1ccc2ncn3c4ccc(O)cc4c(=O)c1c23.Cl` [C-1371], in data set [1], inhibition was half-maximal at 0.7 ± 0.03 µM (IC50), the “RF (resistance fold)” value was 17.90 and the “resistance of A549/K1.5 cells (in words)” value was “prominent resistance”. Moreover, the IC50 in data set [2] came out at 0.04 ± 0.006 µM.

On to `CN(C)CCCCCNc1ccc2ncn3c4ccccc4c(=O)c1c23.Cl` [C-1266], for which the “nuclear accumulation (fluorescence microscopy)” value in data set [3] is “comparable and significant nuclear accumulation regardless of ABCG2 inhibition by FTC”. In data set [1], the half-maximal inhibitory concentration (IC50) was found to be 0.56 ± 0.002 µM, the “RF (resistance fold)” value was found to be 0.20 and the “hypersensitivity of A549/K1.5 cells” value was 5.0 fold. The IC50 in data set [2] turned out to be 2.81 ± 0.27 µM.

Take `CN(C)CCNc1ccc2ncn3c4ccccc4c(=O)c1c23.Cl` [C-1176]: in data set [1], the IC50 came out at 1.21 ± 0.65 µM and the “RF (resistance fold)” value turned out to be 0.51. Besides, the IC50 in data set [2] was 2.35 ± 0.75 µM.

`CCN(CC)CCCNc1ccc2ncn3c4ccc(O)cc4c(=O)c1c23.Cl` [C-1335]: in data set [1], the IC50 was 1 ± 0.25 µM, the “RF (resistance fold)” value worked out at 11.10 and the “resistance of A549/K1.5 cells (in words)” value is recorded as “prominent resistance”. Further, in data set [2], the 50% inhibitory concentration (IC50) turned out to be 0.09 ± 0.004 µM.

As for `CCN(CC)CCNc1ccc2ncn3c4ccc(C)cc4c(=O)c1c23.Cl` [C-1554], in data set [1], the IC50 is 3.07 ± 0.8 µM and the “RF (resistance fold)” value was determined as 1.51. Besides, the IC50 in data set [2] was found to be 2.02 ± 0.33 µM.

Consider `CN(C)CCCNc1ccc2ncn3c4ccccc4c(=O)c1c23.Cl` [C-1212], for which, in data set [1], the half-inhibitory concentration (IC50) was found to be 1.93 ± 0.84 µM and the “RF (resistance fold)” value turned out to be 1.02. In data set [2], the IC50 was found to be 1.89 ± 0.42 µM.

As to `CN(C)CCNc1ccc2ncn3c4ccc(O)cc4c(=O)c1c23.Cl` [C-1584], in data set [1], the IC50 came out at 0.25 ± 0.01 µM, the “RF (resistance fold)” value is 19.20 and the “resistance of A549/K1.5 cells (in words)” value is listed as “prominent resistance”. Also, the IC50 in data set [2] was 0.01 ± 0.002 µM.

Consider `CCN(CC)CCNc1ccc2ncn3c4ccc(OC)cc4c(=O)c1c23.Cl` [C-1330], for which, in data set [1], the half-inhibitory concentration (IC50) amounted to 0.97 ± 0.08 µM, the “RF (resistance fold)” value is given as 0.45 and the “hypersensitivity of A549/K1.5 cells” value is given as 2.2 fold. In addition, the IC50 in data set [2] came out at 2.16 ± 0.27 µM.

Consider `CCN(CC)CCCNc1ccc2nc(C)n3c4ccc(OC)cc4c(=O)c1c23.Cl` [C-1379], for which, in data set [1], the half-maximal inhibitory concentration (IC50) was determined as 0.68 ± 0.06 µM and the “RF (resistance fold)” value turned out to be 0.63. For the same molecule, in data set [2], the IC50 amounted to 1.07 ± 0.03 µM.

Take `COc1ccc2c(c1)c(=O)c1c(NCCCN(C)C)ccc3nc(C)n2c31.Cl` [C-1375]: in data set [1], the IC50 was determined as 1.25 ± 0.11 µM and the “RF (resistance fold)” value is given as 0.96. Also, the IC50 in data set [2] came to 1.3 ± 0.06 µM.

For `CCN(CC)CCNc1ccc2ncn3c4ccc(C(C)(C)C)cc4c(=O)c1c23.Cl` [C-1558], in data set [1], the IC50 is 2.51 ± 0.17 µM and the “RF (resistance fold)” value is recorded as 1.70. Moreover, the half-inhibitory concentration (IC50) in data set [2] came out at 1.48 ± 0.25 µM.

With `CCN(CC)CCNc1ccc2ncn3c4c(OC)ccc(OC)c4c(=O)c1c23.Cl` [C-1503], the IC50 in data set [1] turned out to be 3.09 ± 0.74 µM; in data set [2], 3.5 ± 0.64 µM. Further, the “RF (resistance fold)” value in data set [1] amounted to 0.88.

`CCN(CC)CCNc1ccc2ncn3c4ccccc4c(=O)c1c23.Cl` [C-1415]: the IC50 in data set [1] turned out to be 2.38 ± 0.12 µM; in data set [2] it was 2.7 ± 0.21 µM. The “RF (resistance fold)” value in data set [1] was 0.88.

As to `CCN(CC)CCNc1ccc2ncn3c4cc(O)ccc4c(=O)c1c23.Cl` [C-1419], in data set [1], 31.3 ± 2.55 µM corresponded to half-maximal inhibition (IC50), the “RF (resistance fold)” value was found to be 10.70 and the “resistance of A549/K1.5 cells (in words)” value is on record as “prominent resistance”. Besides, the IC50 in data set [2] is 2.92 ± 0.42 µM.

On to `CCCCN(CCCC)CCNc1ccc2nc(C)n3c4ccc(O)cc4c(=O)c1c23.Cl` [C-1315], for which the IC50 in data set [1] was 3.46 ± 0.16 µM; in data set [2], 1.69 ± 0.26 µM. Also, in data set [1], the “RF (resistance fold)” value came to 2.05. Also, in data set [4], the “ABCG2-mediated extrusion / interaction with ABCG2 (in words)” value is recorded as “failed to display any significant interaction with ABCG2”.

Consider `CCN(CC)CCNc1ccc2ncn3c4c(O)cccc4c(=O)c1c23.Cl` [C-1633], for which, in data set [1], the concentration for half-maximal inhibition (IC50) was 9.83 ± 1.44 µM, the “RF (resistance fold)” value was 4.35 and the “resistance of A549/K1.5 cells (in words)” value was “prominent resistance”. For the same molecule, in data set [2], the IC50 was determined as 2.26 ± 0.33 µM.

For the molecule `CCN(CC)CCCCCCCCCNc1ccc2ncn3c4ccc(O)cc4c(=O)c1c23.Cl` [C-2018], the IC50 in data set [1] was determined as 2.13 ± 0.62 µM; in data set [2], 1.54 ± 0.31 µM. Moreover, the “RF (resistance fold)” value in data set [1] turned out to be 1.38. Further, in data set [4], the “ABCG2-mediated extrusion / interaction with ABCG2 (in words)” value is “failed to display any significant interaction with ABCG2”.

Turning to `CN(C)CCCCCNc1ccc2ncn3c4ccc(O)cc4c(=O)c1c23.Cl` [C-1492], in data set [1], the IC50 came to 17.2 ± 1.95 µM, the “RF (resistance fold)” value was 10.10 and the “resistance of A549/K1.5 cells (in words)” value is on record as “prominent resistance”. The IC50 in data set [2] amounted to 1.69 ± 0.12 µM.

Take `Cc1nc2ccc(NCCN(C)C)c3c(=O)c4ccccc4n1c23.Cl` [C-1213]: in data set [1], half-maximal inhibition (IC50) was put at 18.3 ± 2.4 µM and the “RF (resistance fold)” value worked out at 1.49. Besides, the IC50 in data set [2] is 12.3 ± 2.5 µM.
